# Assay results as given in PMC6488579 (2019).
# Columns and labels:
# [1] = tested on: DEX04 (DNA, aptamer) ATATCATATGCTCCAATTACACGACGAGGGACGAGGAGTACTTGCCAACGATAACGTCGTTGGATCTGTCTGTGCCCATATTACACTTGCGATCT; test: fluorescence bead-binding, eluted DNA; settings: 150 nM aptamer
# [2] = tested on: HOC6-S-S-C6-DEX04 (DNA, aptamer) ACACGACGAGGGACGAGGAGTACTTGCCAACGATAACGTCGTTGGATCTGTCTGTGCCC; test: electrochemical impedance, Rct change
# [3] = tested on: DEX01 (DNA, aptamer) ATATCATATGCTCCAATTACACCCCACGTAGTGTCACAGCACGCTTATAGTAAGTGAAGTGACGGGTTGCTGATGTGATATTACACTTGCGATCT; test: fluorescence bead-binding saturation, eluted DNA; settings: immobilised compound (DXN Sepharose 6β beads); binding buffer; aptamer 50-400 nM
# [4] = tested on: DEX03 (DNA, aptamer) ATATCATATGCTCCAATTACGCGTAGGGATGTGTAAGGTCTGTACACCTCGGTTTACTCTATGCTTCGCATATTGTCGATATTACACTTGCGATCT; test: fluorescence bead-binding saturation, eluted DNA; settings: immobilised compound (DXN Sepharose 6β beads); binding buffer; aptamer 50-400 nM
# [5] = tested on: DEX04 (DNA, aptamer) ATATCATATGCTCCAATTACACGACGAGGGACGAGGAGTACTTGCCAACGATAACGTCGTTGGATCTGTCTGTGCCCATATTACACTTGCGATCT; test: fluorescence bead-binding saturation, eluted DNA; settings: immobilised compound (DXN Sepharose 6β beads); binding buffer; aptamer 50-400 nM
# [6] = tested on: DEX10 (DNA, aptamer) ATATCATATGCTCCAATTGGACAGCTGGCCGCGAAGCGAGACACGTATAAGGTACTATACGGCTGGCATATGTATCTGATATTACACTTGCGATCT; test: fluorescence bead-binding saturation, eluted DNA; settings: immobilised compound (DXN Sepharose 6β beads); binding buffer; aptamer 50-400 nM
# [7] = tested on: DEX05 (DNA, aptamer) ATATCATATGCTCCAATTACAGGCTTGGATTAGTGTATCCAACTAGTATCGTGTATACTAGGCCCTTGCTACCCTGTGATATTACACTTGCGATCT; test: fluorescence bead-binding saturation, eluted DNA; settings: immobilised compound (DXN Sepharose 6β beads); aptamer up to 400 nM; NB [sic]
# [8] = tested on: DEX06 (DNA, aptamer) ATATCATATGCTCCAATTACACACGAAACACAAGCAGTGAGACTGCCTACGTCCGTAGTTGTGTTGAGTTTGCTCTCCATATTACACTTGCGATCT; test: fluorescence bead-binding saturation, eluted DNA; settings: immobilised compound (DXN Sepharose 6β beads); aptamer up to 400 nM; NB [sic]
# [9] = highest tested 1 nM (below detection limit for DXN), measured in 10 mM PBS pH 7.4
smiles,measurement,setting,value
CC(=O)[C@H]1CC[C@H]2[C@@H]3CCC4=CC(=O)CC[C@]4(C)[C@H]3CC[C@]12C,binding,"[1]; immobilised compound (P4 beads, 20 µL, 4.4 nmol/mL)",no
same,binding,[2]; [9],no
C#C[C@]1(O)CC[C@H]2[C@@H]3CCC4=CC(=O)CC[C@@H]4[C@H]3CC[C@@]21C,binding,"[1]; immobilised compound (NET beads, 5 µL, 6–14 µmol/mL)",no
same,binding,[2]; [9],no
C[C@]12CC[C@@H]3c4ccc(O)cc4CC[C@H]3[C@@H]1CC[C@@H]2O,binding,"[1]; immobilised compound (E2 beads, 5 µL, 6–14 µmol/mL)",no
same,binding,[2]; [9],no
C[C@@H]1C[C@H]2[C@@H]3CCC4=CC(=O)C=C[C@]4(C)[C@@]3(F)[C@@H](O)C[C@]2(C)[C@@]1(O)C(=O)CO,binding,"[2]; free DXN 50 and 100 nM, 10 mM PBS pH 7.4, 10 mM ferri/ferrocyanide",yes
same,KD,[3],15.71 nM
same,KD,[4],72.83 nM
same,KD,[5],18.35 nM
same,KD,[6],715 nM
same,binding,[7],no
same,binding,[8],no
